Experimental data taken from publication PMC5572697, “A first-in-human study of the novel HIV-fusion inhibitor C34-PEG4-Chol” (Scientific Reports, 2017).
“Also recorded” adds a separate entry of the source.

Legend:
[1] = in vivo; details: rhesus monkey, rhesus monkeys; for AUC(0-inf): plasma LC-MS, mean of three animals per point
Method: C34-PEG4-Chol first in man – Supplementary Information
Supplementary Information 2:
Preclinical Pharmacokinetics of C34-PEG4-Chol […]
C34-PEG4-Chol was formulated in 10 mM phosphate buffered saline (pH 7.2). The concentration of C34-PEG4-Chol in plasma samples was determined by LC-MS as previously […]
Figure S4. Pharmacokinetics of C34-PEG4-Chol in rhesus monkeys 2.0 mg/kg or 1.0 mg/kg (SC and IV administration, respectively) of C34-PEG4-Chol in 10mM phosphate buffered saline (PBS) were administered to rhesus monkeys: volume of administration 0.5 mL/kg. The concentration of the dosing solution was determined immediately after dosing with the same analytical method utilized to monitor peptide plasma concentration with time, and the analytical curves were adjusted accordingly. Each data point is the mean of three animals.
Table S4. Calculated pharmacokinetics parameters of C34-PEG4-Chol in rhesus monkeys, following intravenous (IV) and subcutaneous (SC) administration. […]

[2] = system: HIV-positive men; experiment: First-in-human safety and injection site reaction (ISR) grading; assay type: in vivo; details: for ISR grade: one participant
Method: Dosing was commenced at the lowest dose of 10 mg in a volume of 1 mL. Randomisation was undertaken using the InForm™ Integrated Trial Management system and was on a 1:1 basis, with no predefined stratifications. All clinical study staff were blinded. Clinical research pharmacists who were not part of the clinical research team, were not blinded in order to reconstitute study products. These members of the research pharmacy team had no involvement in the clinical care of participants during study procedures.
At all study time-points, participants were reviewed for ISRs, a symptom-directed physical examination was performed and blood samples were collected for full blood picture, electrolytes, liver enzymes, amylase and glucose. An electrocardiogram was performed pre-dose and 4 and 12 hours after dosing. A decision to proceed with dose escalation was made only after all four participants in each dose cohort had been observed for a minimum of 7 days for safety assessments. All safety data were reviewed by an independent data monitoring committee (IDMC).
Supplementary Information 1:
Table S1: List of injection site reactions (ISR) grading

[3] = system: dogs; experiment: Repeat-dose toxicity study in dogs; assay type: in vivo; details: subcutaneous
Method: Pre-clinical toxicology studies were conducted in 2 species (rodent/mice and non-rodent/dogs). Multiple high doses of C34-PEG4-Chol, up to 12 mg/kg or 10 x the maximum proposed human dose, were administered daily in mice and twice weekly (the intended frequency in humans) in dogs for 14 days, with a 7-day recovery period for both species. […] Toxicology results were analysed independently by the Medicines and Healthcare Regulatory Authority (MHRA), UK before a decision was made to proceed with trial in humans.
Repeat-dose toxicity studies were conducted in mice (n = 20 at 6 mg/kg/day, n = 20 at 12 mg/kg/day) and dogs (n = 6 at 6 mg/kg/day, n = 6 at 12 mg/kg/day). The subcutaneous route of administration was selected for both species. The highest dose of 12 mg/kg/day was based on the maximal achievable dose with the formulation, and corresponded to 10x the maximum proposed human dose (80 mg, 1.15 mg/kg). No premature decedents occurred in either species. Following observation, animals were euthanised.

[4] = Human plasma pharmacokinetics after a single subcutaneous dose; assay type: in vivo; set-up: Area under plasma-concentration-time-curve: unit not given here; details: for half-life / Cmax / Tmax / Vd: sc; for Cmax: LC-MS/MS, non-compartmental, read-out: Maximum observed concentration; for Tmax: read-out: Time to maximum observed concentration; for Vd: read-out: Volume of distribution; for Time-to-MEC (time plasma concentrations remained above the minimum effective concentration): assay cut-off 62.5 ng/mL used as surrogate
Method: Intensive pharmacokinetic sampling was performed over the first 24 hours subsequent to dosing with samples collected pre-dose, 0.5 h, 1 h, 2 h, 4 h, 6 h, 8 h, 12 h, 24 h. Thereafter pharmacokinetic sampling was undertaken on days 2, 3, 4, 7, 10, 14, 21 and 28. Plasma samples (100 µL) were extracted in 300 µL of acetonitrile containing 1% formic acid; vortexed and centrifuged at 4000 rpm for 10 minutes. The supernatant was transferred into autosampler vials, and 25 μL injected onto the LC-MS/MS. Quantitative analysis of C34-PEG4-Chol was performed by LC-MS/MS using a Thermo Quantum Access triple quadrupole mass spectrometer, interfaced with a heated electrospray ionisation (H-ESI) source (Thermo Fisher Scientific, Hemel Hempstead, UK). The HPLC system included a variable loop Accela autosampler and an Accela pump (ThermoScientific, Hemel Hempstead, UK). Chromatographic separation was achieved using a reverse-phase XBridge Peptide BEH C18 column (3.5 µm; 50 mm × 2.1 mm) (Waters Corporation, Milford, US) interfaced with a 2 µm C18 Quest column saver (Thermo Scientific, Hemel Hempstead, UK). The gradient mobile phase, consisting of a solvent A (0.1% formic acid in Water) and solvent B (0.1% formic acid in acetonitrile), was delivered at a flow rate of […]. Detection of C34-PEG4-Chol was performed in the pseudo Selected Reaction Monitoring mode, monitoring a triple charged molecular ion [M + 3 H]3 + at m/z 1756.8. The internal standard (quinoxaline), was monitored at m/z 313.1 → 246.1. Peak area ratios of compound to internal standard were utilized to construct a calibration curve with a weighting of 1/x2. Data acquisition and processing was performed using LCQuan software (Version 2.7, Thermo Scientific, Hemel Hempstead, UK). The assay calibration range was between 62.5–10,000 ng/mL; inter and intra-assay accuracy and precision at the assay limit of quantification (LLQ) fell within the designated ±20% of the nominal value, and were within ±15% for all QC levels.
Pharmacokinetic parameters were derived via non-compartmental modeling. The area-under-the-concentration-time-curve (AUC) was calculated following a single dose, assuming linear decrease over time, by linear trapezoidal method. The maximum concentration (Cmax) observed at each dose and the time-to-Cmax (Tmax) were calculated. The time to reach minimum effective concentration was assessed in order to determine the frequency of future dosing regimens. […] Given our assay cut-off was 62.5 ng/mL, our assay cut off was used as a surrogate for the IC90.

[5] = human, in vivo, 10 mg, participant 1, single SC 10 mg
[6] = human, in vivo, 10 mg, participant 3, single SC 10 mg
[7] = human, in vivo, 20 mg, participant 5, single SC 20 mg

Question: Which results are given for `CC[C@H](C)[C@H](NC(=O)[C@H](CC(C)C)NC(=O)[C@H](CO)NC(=O)[C@H](Cc1c[nH]cn1)NC(=O)[C@@H](NC(=O)[C@H](CC(C)C)NC(=O)[C@H](CO)NC(=O)[C@@H](NC(=O)[C@H](Cc1ccc(O)cc1)NC(=O)[C@H](CC(N)=O)NC(=O)[C@H](CC(N)=O)NC(=O)[C@@H](NC(=O)[C@H](CCC(=O)O)NC(=O)[C@H](CCCNC(=N)N)NC(=O)[C@H](CC(=O)O)NC(=O)[C@H](Cc1c[nH]c2ccccc12)NC(=O)[C@H](CCC(=O)O)NC(=O)[C@H](CCSC)NC(=O)[C@H](Cc1c[nH]c2ccccc12)NC(C)=O)[C@@H](C)CC)[C@@H](C)O)[C@@H](C)CC)C(=O)N[C@@H](CCC(=O)O)C(=O)N[C@@H](CCC(=O)O)C(=O)N[C@@H](CO)C(=O)N[C@@H](CCC(N)=O)C(=O)N[C@@H](CC(N)=O)C(=O)N[C@@H](CCC(N)=O)C(=O)N[C@@H](CCC(N)=O)C(=O)N[C@@H](CCC(=O)O)C(=O)N[C@@H](CCCCN)C(=O)N[C@@H](CC(N)=O)C(=O)N[C@@H](CCC(=O)O)C(=O)N[C@@H](CCC(N)=O)C(=O)N[C@@H](CCC(=O)O)C(=O)N[C@@H](CC(C)C)C(=O)N[C@@H](CC(C)C)C(=O)NCC(=O)N[C@@H](CO)C(=O)NCC(=O)N[C@@H](CSCC(=O)NCCOCCOCCOCCOCCC(=O)O[C@H]1CC[C@@]2(C)C(=CC[C@H]3[C@@H]4CC[C@H]([C@H](C)CCCC(C)C)[C@@]4(C)CC[C@@H]32)C1)C(N)=O` [C34-PEG4-Chol]?
Answer: clearance ([1]; IV 1.0 mg/kg): 4.68 mL/h/kg; AUC(0-inf) ([1]; IV 1.0 mg/kg in 10 mM PBS): 41.5 µM·h; Vd ([1]; IV 1.0 mg/kg, read-out: Vdss): 0.055 L/kg; half-life ([1]; IV 1.0 mg/kg, read-out: t½ (converted)): 8.5 h; Cmax ([1]; SC 2.0 mg/kg): 1150 nM; Tmax ([1]; SC 2.0 mg/kg): 6.7 h; bioavailability ([1]; SC 2.0 mg/kg): 45.3%; AUC(0-inf) ([1]; SC 2.0 mg/kg in 10 mM PBS): 37.5 µM·h; Individuals with grade 3 ISR among those administered active drug ([2]; 3 men received active drug (10 mg, 10 mg, 20 mg), subcutaneous): 2 out of 3; ISR grade ([2]; single subcutaneous 10 mg dose): grade 3; ISR grade ([2]; single subcutaneous 20 mg dose): grade 3; Systemic clinical or laboratory toxicities ([2]; single subcutaneous 10 or 20 mg, 84 days follow up): No systemic toxicities were observed; also recorded: No systemic clinical toxicities or laboratory defined toxicities were observed; Tolerability ([3]; 6 and 12 mg/kg, 14 days): well tolerated; Injection site findings ([3]; also seen in controls, greater severity with the peptide): some subcutaneous inflammation at the injection sites; also recorded: mild and reversible; half-life [4, 5]: 48 h; Cmax ([4]; human, in vivo, 10 mg, participant 1, single SC 10 mg, plasma): 418 ng/mL; Tmax [4, 5]: 2 h; Vd [4, 5]: 24 L; half-life [4, 6]: 54 h; Cmax ([4]; human, in vivo, 10 mg, participant 3, single SC 10 mg, plasma): 278 ng/mL; Tmax [4, 6]: 6 h; Vd [4, 6]: 39.5 L; half-life [4, 7]: 46 h; Cmax ([4]; human, in vivo, 20 mg, participant 5, single SC 20 mg, plasma): 1030 ng/mL; Tmax [4, 7]: 2 h; Vd [4, 7]: 19.5 L; AUC ([4]; human, in vivo, participant 3, single SC 10 mg, linear trapezoidal, read-out: Area under plasma-concentration-time-curve): 200 ng·h/mL; level at 72 h ([4]; human, plasma, two subjects, single SC 10 mg, above the LLOQ, read-out: Plasma concentration at 72 hours): > 62 ng/mL; Area under plasma-concentration-time-curve ([4]; participant 5, single SC 20 mg, linear trapezoidal): 506; Time-to-MEC (time plasma concentrations remained above the minimum effective concentration) ([4]; single SC 10 mg): 72 h; Time-to-MEC (time plasma concentrations remained above the minimum effective concentration) ([4]; single SC 20 mg): 96 h; Half-life, range over the three participants ([4]; single SC 10, 10 and 20 mg): 46 to 54 h
